Laboratory results: PMC12408367 (2025)

Assays:
[1] = test system: mutant (mut) 5′UTR of KDM5C mRNA (RNA, mRNA element) UGGCGUGGGCUGCGGUACGACGGCCACACGCC; assay: microscale thermophoresis (Monolith NT.115); details: DEPC water; RNA stock 40 nM; 1 mM putrescine stock (highest), 16-step 1:2 dilution
[2] = test system: wild-type (WT) 5′UTR of KDM5C mRNA (RNA, mRNA element) UGGCGAAGGCUGCGGUACGACGGCCACACGCC; assay: microscale thermophoresis (Monolith NT.115); details: DEPC water; RNA stock 40 nM; 1 mM putrescine stock, 16-step 1:2 dilution; 4PL sigmoidal fit

binding [1]: no
Kd [2]: 52.3 µM
Structure (SMILES): NCCCCN
